Test results published in ChEMBL document CHEMBL1201862, “PubChem BioAssay data set” (2004).
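Cells were grown in 96-well plates and exposed to each compound for 48 hours at five concentrations; endpoints were interpolated linearly between bracketing concentrations, or set to the highest concentration if not reached. GI50: concentration for 50% inhibition of growth.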 The source made the active and inactive calls. Cut-off read from the data, not from the text of the source: active = GI50 up to about 1.1 µM and inactive = higher.

Columns and labels:
Assay in all cases: NCI-60 cell line screen, 48 h
786-0 = test system: 786-0
A498 = test system: A498
A549 = test system: A549
ACHN = test system: ACHN
BT-549 = test system: BT-549
CAKI-1 = test system: CAKI-1
CCRF-CEM = test system: CCRF-CEM
COLO 205 = test system: COLO 205
DU-145 = test system: DU-145
EKVX = test system: EKVX
HCC 2998 = test system: HCC 2998
HCT-116 = test system: HCT-116
HCT-15 = test system: HCT-15
HL-60 = test system: HL-60
HOP-62 = test system: HOP-62
HT-29 = test system: HT-29
Hs-578T = test system: Hs-578T
IGROV-1 = test system: IGROV-1
K562 = test system: K562
KM12 = test system: KM12
M14 = test system: M14
MCF7 = test system: MCF7
MDA-MB-231 = test system: MDA-MB-231
MDA-MB-435 = test system: MDA-MB-435
MDA-N = test system: MDA-N
MOLT-4 = test system: MOLT-4
Malme-3M = test system: Malme-3M
NCI-H226 = test system: NCI-H226
NCI-H23 = test system: NCI-H23
NCI-H460 = test system: NCI-H460
NCI-H522 = test system: NCI-H522
NCI/ADR-RES = test system: NCI/ADR-RES
OVCAR-3 = test system: OVCAR-3
OVCAR-4 = test system: OVCAR-4
OVCAR-5 = test system: OVCAR-5
OVCAR-8 = test system: OVCAR-8
PC-3 = test system: PC-3
RPMI-8226 = test system: RPMI-8226
RXF 393 = test system: RXF 393
SF-268 = test system: SF-268
SF-295 = test system: SF-295
SK-MEL-28 = test system: SK-MEL-28
SK-MEL-2 = test system: SK-MEL-2
SK-MEL-5 = test system: SK-MEL-5
SK-OV-3 = test system: SK-OV-3
SN12C = test system: SN12C
SNB-19 = test system: SNB-19
SNB-75 = test system: SNB-75
SR = test system: SR
SW-620 = test system: SW-620
T47D = test system: T47D
TK-10 = test system: TK-10
U-251 = test system: U-251
UACC-257 = test system: UACC-257
UACC-62 = test system: UACC-62
UO-31 = test system: UO-31
HOP-92 = test system: HOP-92
LOX IMVI = test system: LOX IMVI
SF-539 = test system: SF-539

Cc1ccc(CCCCCOc2ccc(C3=NCCO3)cc2)s1
GI50 (786-0): > 100 µM (inactive) | GI50 (A498): 1.81 µM (inactive) | GI50 (A549): > 100 µM (inactive) | GI50 (ACHN): > 100 µM (inactive) | GI50 (BT-549): > 100 µM (inactive) | GI50 (CAKI-1): > 100 µM (inactive) | GI50 (CCRF-CEM): > 100 µM (inactive) | GI50 (COLO 205): > 100 µM (inactive) | GI50 (DU-145): > 100 µM (inactive) | GI50 (EKVX): > 100 µM (inactive) | GI50 (HCC 2998): > 100 µM (inactive) | GI50 (HCT-116): > 100 µM (inactive) | GI50 (HCT-15): > 100 µM | GI50 (HL-60): > 100 µM (inactive) | GI50 (HOP-62): > 100 µM (inactive) | GI50 (HT-29): > 100 µM (inactive) | GI50 (Hs-578T): > 100 µM (inactive) | GI50 (IGROV-1): > 100 µM (inactive) | GI50 (K562): 9.29 µM (inactive) | GI50 (KM12): > 100 µM (inactive) | GI50 (M14): > 100 µM (inactive) | GI50 (MCF7): > 100 µM (inactive) | GI50 (MDA-MB-231): > 100 µM (inactive) | GI50 (MDA-MB-435): 4.85 µM (inactive) | GI50 (MDA-N): 5.68 µM (inactive) | GI50 (MOLT-4): > 100 µM (inactive) | GI50 (Malme-3M): > 100 µM (inactive) | GI50 (NCI-H226): > 100 µM (inactive) | GI50 (NCI-H23): > 100 µM (inactive) | GI50 (NCI-H460): > 100 µM (inactive) | GI50 (NCI-H522): > 100 µM (inactive) | GI50 (NCI/ADR-RES): > 100 µM (inactive) | GI50 (OVCAR-3): > 100 µM (inactive) | GI50 (OVCAR-4): > 100 µM (inactive) | GI50 (OVCAR-5): > 100 µM (inactive) | GI50 (OVCAR-8): > 100 µM (inactive) | GI50 (PC-3): > 100 µM (inactive) | GI50 (RPMI-8226): > 100 µM (inactive) | GI50 (RXF 393): > 100 µM (inactive) | GI50 (SF-268): > 100 µM (inactive) | GI50 (SF-295): > 100 µM (inactive) | GI50 (SK-MEL-28): > 100 µM (inactive) | GI50 (SK-MEL-2): > 100 µM (inactive) | GI50 (SK-MEL-5): > 100 µM (inactive) | GI50 (SK-OV-3): > 100 µM (inactive) | GI50 (SN12C): > 100 µM (inactive) | GI50 (SNB-19): > 100 µM (inactive) | GI50 (SNB-75): > 100 µM (inactive) | GI50 (SR): 2.84 µM (inactive) | GI50 (SW-620): > 100 µM (inactive) | GI50 (T47D): > 100 µM (inactive) | GI50 (TK-10): > 100 µM (inactive) | GI50 (U-251): > 100 µM (inactive) | GI50 (UACC-257): > 100 µM (inactive) | GI50 (UACC-62): > 100 µM (inactive) | GI50 (UO-31): > 100 µM (inactive)

COC1OC2COC(c3ccccc3)OC2C(O)C1OC(=S)c1ccccc1 (stereo not drawn)
GI50 (A498): 40.5 µM (inactive) | GI50 (A549): 0.607 µM (active) | GI50 (ACHN): 24.3 µM (inactive) | GI50 (BT-549): 53.1 µM (inactive) | GI50 (CAKI-1): 24.4 µM (inactive) | GI50 (CCRF-CEM): 19.9 µM (inactive) | GI50 (COLO 205): 16.7 µM (inactive) | GI50 (DU-145): 97.3 µM (inactive) | GI50 (EKVX): 19.5 µM (inactive) | GI50 (HCT-15): 28.4 µM | GI50 (HOP-62): 30.8 µM (inactive) | GI50 (HOP-92): > 100 µM (inactive) | GI50 (HT-29): 20.5 µM (inactive) | GI50 (Hs-578T): 62.1 µM (inactive) | GI50 (IGROV-1): 32.4 µM (inactive) | GI50 (K562): 53.3 µM (inactive) | GI50 (LOX IMVI): 0.244 µM (active) | GI50 (M14): 46.2 µM (inactive) | GI50 (MCF7): 36.3 µM (inactive) | GI50 (MDA-MB-231): 36.7 µM (inactive) | GI50 (MDA-MB-435): 1.31 µM (inactive) | GI50 (MDA-N): 27.3 µM (inactive) | GI50 (MOLT-4): 70.6 µM (inactive) | GI50 (Malme-3M): 21.2 µM (inactive) | GI50 (NCI-H226): 46.1 µM (inactive) | GI50 (NCI-H23): 59.7 µM (inactive) | GI50 (NCI-H460): 28.6 µM (inactive) | GI50 (NCI/ADR-RES): 36.6 µM (inactive) | GI50 (OVCAR-3): 34.8 µM (inactive) | GI50 (OVCAR-4): 73.6 µM (inactive) | GI50 (OVCAR-5): > 100 µM (inactive) | GI50 (OVCAR-8): 67.8 µM (inactive) | GI50 (PC-3): 18.3 µM (inactive) | GI50 (RPMI-8226): 15.5 µM (inactive) | GI50 (RXF 393): 41.4 µM (inactive) | GI50 (SF-268): > 100 µM (inactive) | GI50 (SF-295): 39.3 µM (inactive) | GI50 (SF-539): 35.2 µM (inactive) | GI50 (SK-MEL-28): 26.9 µM (inactive) | GI50 (SK-MEL-2): 53.3 µM (inactive) | GI50 (SK-MEL-5): 23 µM (inactive) | GI50 (SK-OV-3): > 100 µM (inactive) | GI50 (SN12C): 21.8 µM (inactive) | GI50 (SNB-19): > 100 µM (inactive) | GI50 (SR): 42.9 µM (inactive) | GI50 (SW-620): 45.3 µM (inactive) | GI50 (T47D): 14.9 µM (inactive) | GI50 (TK-10): 62.5 µM (inactive) | GI50 (U-251): 0.188 µM (active) | GI50 (UACC-257): 50 µM (inactive) | GI50 (UACC-62): 31 µM (inactive) | GI50 (UO-31): 61.4 µM (inactive)

O=C1/C(=C/c2n[nH]cc2-c2ccc(Cl)cc2)C(=O)N(c2ccccc2)C1c1ccccc1 (stereo not drawn)
GI50 (786-0): 17.2 µM (inactive) | GI50 (A498): 20.6 µM (inactive) | GI50 (A549): 25 µM (inactive) | GI50 (ACHN): 20.1 µM (inactive) | GI50 (BT-549): 14.6 µM (inactive) | GI50 (CAKI-1): 10.1 µM (inactive) | GI50 (CCRF-CEM): 17.6 µM (inactive) | GI50 (COLO 205): 14.2 µM (inactive) | GI50 (DU-145): 20.6 µM (inactive) | GI50 (EKVX): 20.7 µM (inactive) | GI50 (HCT-116): 12.5 µM (inactive) | GI50 (HCT-15): 15 µM | GI50 (HL-60): 12.9 µM (inactive) | GI50 (HOP-62): 17.4 µM (inactive) | GI50 (HOP-92): 23.4 µM (inactive) | GI50 (HT-29): 12.3 µM (inactive) | GI50 (Hs-578T): 9.4 µM (inactive) | GI50 (IGROV-1): 16.6 µM (inactive) | GI50 (K562): 8.41 µM (inactive) | GI50 (KM12): 20.9 µM (inactive) | GI50 (LOX IMVI): 14.3 µM (inactive) | GI50 (M14): 12.9 µM (inactive) | GI50 (MCF7): 25.9 µM (inactive) | GI50 (MDA-MB-231): 18.9 µM (inactive) | GI50 (MDA-MB-435): 14.9 µM (inactive) | GI50 (MDA-N): 14 µM (inactive) | GI50 (MOLT-4): 16.9 µM (inactive) | GI50 (Malme-3M): 22.9 µM (inactive) | GI50 (NCI-H226): 24.2 µM (inactive) | GI50 (NCI-H23): 13.3 µM (inactive) | GI50 (NCI-H460): 26.4 µM (inactive) | GI50 (NCI-H522): 7.74 µM (inactive) | GI50 (NCI/ADR-RES): 21.6 µM (inactive) | GI50 (OVCAR-3): 6.28 µM (inactive) | GI50 (OVCAR-4): 25.6 µM (inactive) | GI50 (PC-3): 6.92 µM (inactive) | GI50 (RPMI-8226): 13.7 µM (inactive) | GI50 (RXF 393): 14.3 µM (inactive) | GI50 (SF-268): 13.7 µM (inactive) | GI50 (SF-295): 18.4 µM (inactive) | GI50 (SF-539): 22.3 µM (inactive) | GI50 (SK-MEL-28): 17.7 µM (inactive) | GI50 (SK-MEL-2): 15.2 µM (inactive) | GI50 (SK-MEL-5): 13.8 µM (inactive) | GI50 (SK-OV-3): 15.5 µM (inactive) | GI50 (SN12C): 29.1 µM (inactive) | GI50 (SNB-19): 27.4 µM (inactive) | GI50 (SR): 11.8 µM (inactive) | GI50 (SW-620): 18.3 µM (inactive) | GI50 (T47D): 1.69 µM (inactive) | GI50 (TK-10): 27.5 µM (inactive) | GI50 (U-251): 19.9 µM (inactive) | GI50 (UACC-257): 19.7 µM (inactive) | GI50 (UACC-62): 11.5 µM (inactive) | GI50 (UO-31): 18.9 µM (inactive)
